Measured values taken from article PMC9518264, “Design and synthesis of novel quinazolinone-based derivatives as EGFR inhibitors with antitumor activity” (Journal of Enzyme Inhibition and Medicinal Chemistry, 2022).

How the values were obtained:
[1] = test system: MALME-3M; test: cells; type: cell-based
[2] = test system: SK-MEL-2; test: cells; type: cell-based
[3] = test system: SK-MEL-5; test: cells; type: cell-based
[4] = test system: UACC-257; test: cells; type: cell-based
[5] = test system: IGROV1; test: cells; type: cell-based
[6] = test system: OVCAR-4; test: cells; type: cell-based
[7] = test system: OVCAR-5; test: cells; type: cell-based
[8] = test system: OVCAR-8; test: cells; type: cell-based
[9] = test system: NCI/ADR-RES; test: cells; type: cell-based
[10] = test system: SK-OV-3; test: cells; type: cell-based
[11] = test system: 786-0; test: cells; type: cell-based
[12] = test system: A498; test: cells; type: cell-based
[13] = test system: ACHN; test: cells; type: cell-based
[14] = test system: SN12C; test: cells; type: cell-based
[15] = test system: TK-10; test: cells; type: cell-based
[16] = test system: PC-3; test: cells; type: cell-based
[17] = test system: DU-145; test: cells; type: cell-based
[18] = test system: MCF7; test: cells; type: cell-based
[19] = test system: BT-549; test: cells; type: cell-based
[20] = test system: T-47D; test: cells; type: cell-based
[21] = test system: panel of 60 tumour cell lines; test: NCI 60 cell line antiproliferative screening (SRB), whole panel or subpanels (means, ranges, words); type: cell-based, human
[22] = test system: MDA-MB-468; test: NCI 60 cell line antiproliferative screening (SRB), Breast cancer
[23] = test system: OVCAR-3; test: NCI 60 cell line antiproliferative screening (SRB), Ovarian cancer
[24] = Homo sapiens, 5 doses, read-out: LC50 (the source's name)
[25] = Homo sapiens, read-out: growth inhibition % (GI%)

O=C(CSc1nc2ccccc2c(=O)n1-c1ccc(Cl)cc1)NN=Cc1ccc(Oc2ccc(Cl)cc2)cc1 [6d, N'-(4–(4-chlorophenoxy)benzylidene)-2-((3–(4-chlorophenyl)-4-oxo-3,4-dihydroquinazolin-2-yl)thio)acetohydrazide]
GI50 ([1]; Homo sapiens, Malme-3M): 1.38 µM
inhibition at 10 µM ([1]; Homo sapiens, Malme-3M, read-out: growth inhibition % (GI%)): > 100%
CC50 ([1]; Homo sapiens, MALME-3M, 5 doses, read-out: LC50 (the source's name)): 5.55 µM
TGI ([1]; MALME-3M, 5 doses): 2.77 µM
GI50 ([2]; Homo sapiens): 2.86 µM
inhibition at 10 µM ([2]; Homo sapiens, SK-MEL-2, read-out: growth inhibition % (GI%)): 45.7%
CC50 ([2]; Homo sapiens, SK-MEL-2, 5 doses, read-out: LC50 (the source's name)): 41.3 µM
TGI ([2]; SK-MEL-2, 5 doses): 8.93 µM
GI50 ([3]; Homo sapiens, SK-MEL-5): 1.75 µM
inhibition at 10 µM ([3]; Homo sapiens, SK-MEL-5, read-out: growth inhibition % (GI%)): 89.1%
CC50 ([3]; Homo sapiens, SK-MEL-5, 5 doses, read-out: LC50 (the source's name)): 7.07 µM
TGI ([3]; SK-MEL-5, 5 doses): 3.51 µM
GI50 ([4]; Homo sapiens, UACC-257): 4.62 µM
inhibition at 10 µM ([4]; Homo sapiens, UACC-257, read-out: growth inhibition % (GI%)): 41%
CC50 ([4]; Homo sapiens, UACC-257, 5 doses, read-out: LC50 (the source's name)): > 100 µM
TGI ([4]; UACC-257, 5 doses): 22.5 µM
GI50 ([5]; Homo sapiens, IGROV-1): 1.51 µM
inhibition at 10 µM ([5]; Homo sapiens, IGROV-1, read-out: growth inhibition % (GI%)): 79.4%
CC50 ([5]; Homo sapiens, IGROV-1, IGROV1, 5 doses, read-out: LC50 (the source's name)): 7.12 µM
TGI ([5]; IGROV1, 5 doses): 3.28 µM
GI50 ([6]; Homo sapiens, OVCAR-4): 1.89 µM
inhibition at 10 µM ([6]; Homo sapiens, OVCAR-4, read-out: growth inhibition % (GI%)): 98.3%
CC50 ([6]; Homo sapiens, OVCAR-4, 5 doses, read-out: LC50 (the source's name)): 17.5 µM
TGI ([6]; OVCAR-4, 5 doses): 4.57 µM
GI50 ([7]; Homo sapiens, OVCAR-5): 2.27 µM
inhibition at 10 µM ([7]; Homo sapiens, OVCAR-5, read-out: growth inhibition % (GI%)): 29.4%
CC50 ([7]; Homo sapiens, OVCAR-5, 5 doses, read-out: LC50 (the source's name)): 32.2 µM
TGI ([7]; OVCAR-5, 5 doses): 6.44 µM
GI50 ([8]; Homo sapiens, OVCAR-8): 2.41 µM
inhibition at 10 µM ([8]; Homo sapiens, OVCAR-8, read-out: growth inhibition % (GI%)): 86.6%
CC50 ([8]; Homo sapiens, OVCAR-8, 5 doses, read-out: LC50 (the source's name)): > 100 µM
TGI ([8]; OVCAR-8, 5 doses): 6.56 µM
TGI ([9]; 5 doses): 3.56 µM
GI50 ([9]; Homo sapiens): 1.64 µM
CC50 [9, 24]: 7.76 µM
inhibition at 10 µM [9, 25]: 84.3%
GI50 ([10]; Homo sapiens, SK-OV-3): 3.26 µM
inhibition at 10 µM ([10]; Homo sapiens, SK-OV-3, read-out: growth inhibition % (GI%)): 66.2%
CC50 ([10]; Homo sapiens, SK-OV-3, 5 doses, read-out: LC50 (the source's name)): 49.4 µM
TGI ([10]; SK-OV-3, 5 doses): 11.9 µM
TGI ([11]; 786-0, 5 doses): 6.41 µM
GI50 ([11]; Homo sapiens, 786-0): 2.51 µM
inhibition at 10 µM ([11]; Homo sapiens, 786-0, read-out: growth inhibition % (GI%)): > 100%
CC50 ([11]; Homo sapiens, 786-0, 5 doses, read-out: LC50 (the source's name)): 26.5 µM
TGI ([12]; A498, 5 doses): 4.34 µM
GI50 ([12]; Homo sapiens, A498): 1.94 µM
inhibition at 10 µM ([12]; Homo sapiens, A498, read-out: growth inhibition % (GI%)): > 100%
CC50 ([12]; Homo sapiens, A498, 5 doses, read-out: LC50 (the source's name)): 9.74 µM
TGI ([13]; 5 doses): 15.2 µM
GI50 ([13]; Homo sapiens): 4.36 µM
CC50 [13, 24]: 39 µM
inhibition at 10 µM [13, 25]: 36.5%
TGI ([14]; 5 doses): 4.14 µM
GI50 ([14]; Homo sapiens): 1.74 µM
CC50 [14, 24]: 9.84 µM
inhibition at 10 µM [14, 25]: 54.8%
GI50 ([15]; Homo sapiens, TK-10): 5.97 µM
inhibition at 10 µM ([15]; Homo sapiens, TK-10, read-out: growth inhibition % (GI%)): 60.3%
CC50 ([15]; Homo sapiens, TK-10, 5 doses, read-out: LC50 (the source's name)): > 100 µM
TGI ([15]; TK-10, 5 doses): 40.2 µM
GI50 ([16]; Homo sapiens, PC-3): 2.58 µM
inhibition at 10 µM ([16]; Homo sapiens, PC-3, read-out: growth inhibition % (GI%)): 99.2%
CC50 ([16]; Homo sapiens, PC-3, 5 doses, read-out: LC50 (the source's name)): > 100 µM
TGI ([16]; PC-3, 5 doses): 9.32 µM
TGI ([17]; DU-145, 5 doses): 20.4 µM
GI50 ([17]; Homo sapiens, DU-145): 3.52 µM
inhibition at 10 µM ([17]; Homo sapiens, DU-145, read-out: growth inhibition % (GI%)): 86.9%
CC50 ([17]; Homo sapiens, DU-145, 5 doses, read-out: LC50 (the source's name)): > 100 µM
GI50 ([18]; Homo sapiens, MCF7): 2.01 µM
inhibition at 10 µM ([18]; Homo sapiens, MCF7, read-out: growth inhibition % (GI%)): 84.5%
CC50 ([18]; Homo sapiens, MCF7, 5 doses, read-out: LC50 (the source's name)): 25.6 µM
TGI ([18]; MCF7, 5 doses): 5.5 µM
TGI ([19]; BT-549, 5 doses): 12.2 µM
GI50 ([19]; Homo sapiens, BT-549): 3.28 µM
inhibition at 10 µM ([19]; Homo sapiens, BT-549, read-out: growth inhibition % (GI%)): > 100%
CC50 ([19]; Homo sapiens, BT-549, 5 doses, read-out: LC50 (the source's name)): 36.2 µM
GI50 ([20]; Homo sapiens, T47D): 2.09 µM
inhibition at 10 µM ([20]; Homo sapiens, T47D, read-out: growth inhibition % (GI%)): 69.9%
CC50 ([20]; Homo sapiens, T47D, T-47D, 5 doses, read-out: LC50 (the source's name)): 49.5 µM
TGI ([20]; T-47D, 5 doses): 5.76 µM
GI50 ([21]; Homo sapiens, 60 cell, read-out: GI50 range against most of the tested cancer cell lines): 1.29 to 5.97 µM
inhibition at 10 µM ([21]; Homo sapiens, 60 cell, read-out: Mean growth inhibition % (mean GI%)): 80.2%
TGI range against the rest of cell lines ([21]; five dose concentrations, good to moderate cytostatic activity): 11.1 to 48.5 µM
TGI range against 40 cancer cell lines ([21]; five dose concentrations, high cytostatic activity): 2.59 to 9.55 µM
GI50 ([22]; Homo sapiens, MDA-MB-468): 2.08 µM
CC50 ([22]; Homo sapiens, MDA-MB-468, read-out: LC50): 18.8 µM
inhibition at 10 µM ([22]; Homo sapiens, MDA-MB-468, read-out: growth inhibition % (GI%)): > 100%
TGI ([22]; MDA-MB-468, 5 doses): 5.08 µM
GI50 ([23]; Homo sapiens, OVCAR-3): 2.75 µM
CC50 ([23]; Homo sapiens, OVCAR-3, read-out: LC50): 38.9 µM
inhibition at 10 µM ([23]; Homo sapiens, OVCAR-3, read-out: growth inhibition % (GI%)): < 15%
TGI ([23]; OVCAR-3, 5 doses): 9.55 µM
